In the test the target is 4-aminobutyrate aminotransferase, mitochondrial (Rattus norvegicus, UniProt P50554). In words: Inhibition of Rattus norvegicus (rat) brain gamma-amino butyrate aminotransferase using gamma-amino butyrate as substrate assessed as decrease in NADPH generation after 30 min by spectrophotometric analysis.

Molecules are shown by their SMILES.

Chain of 4-aminobutyrate aminotransferase, mitochondrial (P50554 whole entry): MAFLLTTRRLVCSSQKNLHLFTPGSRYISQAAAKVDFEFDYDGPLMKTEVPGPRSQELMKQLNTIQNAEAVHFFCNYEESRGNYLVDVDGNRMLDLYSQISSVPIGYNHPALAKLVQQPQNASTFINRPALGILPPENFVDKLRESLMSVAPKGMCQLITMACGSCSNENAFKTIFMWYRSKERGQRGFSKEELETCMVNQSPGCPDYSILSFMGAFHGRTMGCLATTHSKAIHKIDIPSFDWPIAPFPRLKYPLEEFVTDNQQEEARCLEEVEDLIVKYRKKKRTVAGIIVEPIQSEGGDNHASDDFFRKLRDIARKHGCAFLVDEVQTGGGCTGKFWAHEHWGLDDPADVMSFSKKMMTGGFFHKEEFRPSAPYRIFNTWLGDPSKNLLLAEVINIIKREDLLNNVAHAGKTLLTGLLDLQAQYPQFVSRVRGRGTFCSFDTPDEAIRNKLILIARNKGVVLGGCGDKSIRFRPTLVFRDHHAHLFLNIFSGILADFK

By IC50 is commonly meant the concentration that gives 50% inhibition. For `NCCCC(=O)N/N=C1\CCCc2ccccc21`, the IC50 turned out to be 280 nM.
For the molecule `NCCCC(=O)N/N=C(/C(=O)c1ccccc1)c1ccccc1`, the IC50 is 300 nM.
As to `NCCCC(=O)N/N=C(\c1ccccc1)c1ccc(Br)cc1`, the IC50 was found to be 560 nM.
Then `O=C(O)CCCN=C(/C=C/c1ccccc1)/C=C/c1ccccc1`, with 9950 nM; and `CC12CCC(C1)C(C)(C)/C2=N\CCCC(=O)O` (stereo not drawn), with 10000 nM; and `O=C(O)CCC/N=C1/C(=O)c2ccccc2-c2ccccc21`, with 15500 nM.
Then `O=C(O)CCC/N=C1/C(=O)c2cccc3cccc1c23`, with 16800 nM; and `CC1CCCC/C1=N\CCCC(=O)O` (stereo not drawn), with 20800 nM.
With `CC1CCC(C(C)C)/C(=N/CCCC(=O)O)C1` (stereo not drawn) the figure was 20800 nM.
For the molecule `C=C(C)C1CC=C(C)/C(=N/CCCC(=O)O)C1` (stereo not drawn), the IC50 is 23500 nM.
Turning to `CC1=C/C(=N/CCCC(=O)O)CC(C)(C)C1`, the IC50 stood at 25900 nM.
`CC1=CC(=O)C=C/C1=N\CCCC(=O)O`: the IC50 came to 30100 nM.
In the case of `C/C(=N\CCCC(=O)O)c1ccc2ccccc2c1`, the concentration for half-maximal inhibition (IC50) is 44100 nM.
With `Nc1cccc(C(=O)N/N=C2/c3ccccc3C(=O)c3ccc(O)c(O)c32)c1` the figure was 240 nM.
With `C/C(=N/NC(=O)c1cccc(N)c1)c1cccc(Cl)c1` the figure was 320 nM; with `Nc1cccc(C(=O)N/N=C(/c2ccccc2)c2ccc(Cl)cc2)c1`, 370 nM.
With `Nc1cccc(C(=O)N/N=C2/c3ccccc3C(=O)c3ccc(Cl)cc32)c1` the figure was 460 nM; with `CCc1ccc2c(c1)/C(=N/c1cccc(C(=O)O)c1)c1ccccc1C2=O`, 1210 nM.
Take `O=C(O)c1cccc(/N=C2\C(=O)c3ccccc3-c3ccccc32)c1`: the IC50 was 2780 nM.
Then `O=C(O)c1cccc(N=C2c3ccccc3C(=O)c3ccccc32)c1`, with 4960 nM; and `CC1=C(C)C(=Nc2cccc(C(=O)O)c2)C(C)=C(C)C1=O`, with 6540 nM.
For `C/C(=N/NC(=O)CCCN)c1ccccc1Br`, the IC50 stood at 73 nM.
Then `C/C(=N/NC(=O)CCCN)c1cccc(Cl)c1`, with 91 nM; and `Cc1ccc2c(c1)/C(=N\NC(=O)CCCN)c1ccccc1C2=O`, with 110 nM; and `NCCCC(=O)N/N=C/c1cccc(I)c1`, with 150 nM.
With `NCCCC(=O)N/N=C1\CCc2ccccc2C1` the figure was 130 nM; with `NCCCC(=O)NN=C1c2ccccc2C(=O)c2ccccc21`, 140 nM; with `NCCCC(=O)N/N=C/c1ccccc1I`, 200 nM.
